Results published in patent publication US20250101052A1, “COMPOUND FOR EGFR KINASE INHIBITOR, COMPOSITION, AND USE THEREOF” (INNOVATION INSTITUTE FOR ARTIFICIAL INTELLIGENCE IN …, priority 2021, published 2025).
Where two headings read alike, the source gives them in different places.

How the values were obtained:
BaF3-EGFR^WT cells = assay: BaF3 cell proliferation inhibition experiment (CCK-8); format: cell-based; settings: Mus musculus, read-out: BaF3-EGFR^WT (IC50 nM)
Protocol: (§1) A. Cell line: BaF3 cells with stable overexpression of wild-type genes are named BaF3-EGFR^WT, and BaF3 cells with stable overexpression of EGFR^L858R/T790M/C797S EGFR^del19/T790M/C797S EGFR^L858R/C797S and EGFR^del19/C797S mutant genes are named BaF3-EGFR^L858R/T790M/C797S BaF3-EGFR^del19/T790M/C797S BaF3-EGFR^L858R/C797S and BaF3-EGFR^del19/C797S cells, respectively. Mediums:
(§2) a) The medium was preheated in a 37° C. water bath.
(§3) b) The cryopreservation tube was taken from the liquid nitrogen tank, quickly placed in a 37° C. water bath, and melted completely within 1 minute.
(§4) c) The cell suspension was transferred to a 15 mL centrifuge tube containing a 10 mL medium and centrifuged at 1000 rpm for 4 minutes.
(§5) d) The supernatant was discarded, the cells were resuspended in a 1 mL medium and transferred to a […] culture dish containing a 10 mL medium, 20% serum and 50 ng/mL EGF were administered to the first-generation medium, and culture was conducted in a 37° C. and 5% CO2 incubator.
(§6) b) The cells in the culture dish were blown evenly with a 5 mL pipette, and 500 μL of the cells were pipetted out to be inoculated into a new […] culture dish and cultured in a 37° C. and 5% CO2 incubator.
(§7) a) The compound to be tested (10 mM stock solution) was diluted with 100% DMSO to 1 mM, and diluted with a culture solution in a 24-well plate to prepare of a working solution of 2 μM concentration.
(§8) b) The 2 μM working solution was diluted with a triple dilution method to obtain working solutions with approximate concentrations of 2 μM, 600 nM, 200 nM, 60 nM, and 20 nM.
(§9) a) The cells at the logarithmic growth phase were centrifuged at 1000 rpm for 4 minutes, resuspended with a medium (containing 10% serum and 50 ng/mL EGF), and counted.
(§10) b) The cells were inoculated into a 96-well plate with a cell density of 4000 cells/well, and placed in a 37° C. and 5% CO2 incubator for culture for 12 hours.
(§11) a) The prepared compound was added to a 96-well plate, with 100 μL per well. The final concentrations were 1 μM, 300 nM, 100 nM, 30 nM, 10 nM, and 0 nM, and the final concentration of DMSO was 0.2%. A medium served as a blank control.
(§12) b) The cells were placed in 37° C. and 5% CO2 incubator for culture for 72 hours.
(§13) (5) Cell Viability Testing
(§14) a) The 96-well cell culture plate was taken out, and 20 μL of a CCK-8 reagent (Cell Counting Kit-8, Topscience, Catalog No. C0005) was added in the dark.
(§15) b) Mixing well was conducted on a horizontal shaking table at a room temperature at 100 rpm for 5 minutes.
(§16) c) The culture plate was placed in a 37° C. constant-temperature incubator for incubation.
(§17) The data was analyzed using GraphPad Prism 8.0 software to obtain a fitted curve of activity of the compounds. The IC50 of the compounds was fitted from nonlinear regression equation.

[1] = test system: BaF3-EGFR^del19/T790M/C797S cells; assay: as above; format: cell-based; settings: Ba/F3 EGFR-Del19/T790M/C797S, read-out: BaF3-EGFR^del19 /T790M/C797S (IC50 nM)
Protocol: as §1, §2, §3, §4, §5, §6, §7, §8, §9, §10, §11, §12, §13, §14, §15, §16, §17

[2] = Stability testing of liver microsomes, human; format: in vitro ADME; settings: for CLint scaled at 1 µM / half-life at 1 µM: pH 7.41, human liver microsomes
Protocol: (§18) 1. 100 mM K-buffer was preheated with 5 mM MgCl2 with a pH value of 7.41.
(§19) 2. Preparation of testing solution
(§20) 0.5 mM solution A: 5 μL of the 10 mM compound stock solution was added for reference to 95 μL of ACN.
(§21) 1.5 μM microsome solution (0.75 mg/mL): 1.5 μL of a 500 μM solution and 18.75 μL of 20 mg/mL liver microsomes were added to 479.75 μL of K/Mg-buffer.
(§22) 3. The K/Mg-buffer NADPH solution (6 mM, 5 mg/mL) was prepared.
(§23) 4. […] of human, monkey, and mouse liver microsomes with a 0.75 mg/mL concentration were added to detection plates at different time points (0, 15, 30, 45, and 60 minutes).
(§24) 5. Pre-incubation was conducted at 37° C. for 5 minutes.
(§25) 6. At 0 min, before 15 μL of the NADPH stock solution (6 mM) was added, 150 μL of ACN containing IS was added.
(§26) NADPH was dissolved in the K/mg buffer to prepare a 6 mm and 5 mg/mL NADPH stock solution.
(§27) 7. At other time points, 15 μL of the NADPH stock solution (6 mM) was added to the well for starting the reaction and timing.
(§28) 8. 150 μL of ACN containing IS was added to the corresponding plate wells at 15 min, 30 min, 45 min, and 60 min, respectively, and the reaction was stopped.
(§29) 9. After quenching, shaking well was conducted for 10 minutes (600 rpm), and centrifugation was conducted at 6000 rpm for 15 minutes.
(§30) 10. 80 μL of the supernatant in each well was transferred to a 96-well sample plate (containing 140 μL of pure water) for LC/MS analysis.

[3] = Stability testing of liver microsomes, monkey; format: in vitro ADME; settings: for CLint scaled at 1 µM / half-life at 1 µM: pH 7.41, monkey liver microsomes
Protocol: as §18, §19, §20, §21, §22, §23, §24, §25, §26, §27, §28, §29, §30

[4] = Stability testing of liver microsomes, mouse; format: in vitro ADME; settings: for CLint scaled at 1 µM / half-life at 1 µM: pH 7.41, mouse liver microsomes
Protocol: as §18, §19, §20, §21, §22, §23, §24, §25, §26, §27, §28, §29, §30

[5] = test system: BaF3-EGFR^del19/C797S cells; assay: BaF3 cell proliferation inhibition experiment (CCK-8); format: cell-based; settings: Mus musculus, BaF3, 72 h, read-out: BaF3-EGFR^del19 /C797S (IC50 nM)
Protocol: as §1, §2, §3, §4, §5, §6, §7, §8, §9, §10, §11, §12, §13, §14, §15, §16, §17

[6] = test system: Ba/F3-EGFR^L858R/T790M/C797S nude mouse transplantation tumors; assay: In-vivo efficacy in Ba/F3-EGFR^L858R/T790M/C797S xenograft (CDX); design: species or system BALB/c nude mice; settings: 13 days
Protocol: In-vivo efficacy: The compounds of the present invention have excellent in-vivo anti-tumor efficacy and are dose-dependent
In-vivo efficacy experiments were conducted on BALB/c nude mice subcutaneously implanted with Ba/F3-EGFR^L858R/T790M/C797S derived xenograft (CDX). BALB/c nude mice, female, 6-8 weeks old, weighing approximately 18-22 grams, were raised in an SPF-level environment with separate ventilation for each cage (5 mice per cage). All cages, beddings, and water were disinfected before use. All the animals were free to access standard certified commercial laboratory diets. A total of 48 mice were purchased from Beijing Vital River for research. Each mouse was subcutaneously implanted with […] in the right axilla for tumor growth. The experiment began when the average tumor volume reached about 70 cubic millimeters. The experimental compounds were for oral administration daily, with compound 24 (45 mg/kg, 75 mg/kg respectively) and compound 51 (100 mg/kg) administered continuously for 13 days.

| SMILES | IC50 (BaF3-EGFR^WT cells; BaF3, cell proliferation, 72 hours) | IC50 ([1]; cell proliferation, 72 hours) | CLint scaled at 1 µM [2] | half-life at 1 µM [2] | CLint scaled at 1 µM [3] | half-life at 1 µM [3] | CLint scaled at 1 µM [4] | half-life at 1 µM [4] | IC50 (BaF3-EGFR^WT cells; BaF3, 72 h) | IC50 [5] | IC50 ([1]; 72 h) | stability in liver microsomes (in words) ([2]; humans) | stability in liver microsomes (in words) ([3]; monkeys) | stability in liver microsomes (in words) ([4]; mice) | TGI % ([6]; 45 mg/kg/day oral) | TGI % ([6]; 75 mg/kg/day oral) | TGI % ([6]; 100 mg/kg/day oral) |
| --- | --- | --- | --- | --- | --- | --- | --- | --- | --- | --- | --- | --- | --- | --- | --- | --- | --- |
| CCc1cc(Nc2ncc(Cl)c(Nc3ccc(C)c(C)c3P(C)(C)=O)n2)c(OC)cc1N1CCC(N2CCN(C)CC2)CC1 [Comparative Compound A, reference compound] | 1570 nM | 66.3 nM | 49.8 mL/min/kg | 27.8 min | 52 mL/min/kg | 26.7 min | 18.2 mL/min/kg | 76.1 min |  |  |  |  |  |  |  |  |  |
| CCc1cc(Nc2ncc(Cl)c(Nc3ccc(C)c(C)c3P(C)(C)=O)n2)c(OC)cc1N1CC2(CCN(C)CC2)C1 [Compound 24, (6-((5-Chloro-2-((5-ethyl-2-methoxy-4-(7-methyl-2,7-diazaspiro[3.5]non-2-yl)phenyl)amino)pyrimidin-4-yl)amino)-2,3-dimethylphenyl)dimethylphosphine oxide] |  |  | < 9.6 mL/min/kg | > 145 min | 27.7 mL/min/kg | 50 min | < 9.6 mL/min/kg | > 145 min | 5770 nM | 202 nM | 128 nM | good stability | good stability | good stability | 84.74% | 99.06% |  |
| CCc1cc(Nc2ncc(Cl)c(Nc3ccc(C)c(C)c3P(C)(C)=O)n2)c(OC)cc1N1CCC(N2C[C@H]3CC[C@@H](C2)N3C)CC1 [Compound 51, (6-((5-chloro-2-((5-ethyl-2-methoxy-4-(4-((1R,5S)-8-methyl-3,8-diazabicyclo[3.2.1]octan-3-yl)piperidin-1-yl)phenyl)amino)pyrimidin-4-yl)amino)-2,3-dimethylphenyl)dimethylphosphine oxide] |  |  |  |  |  |  |  |  | 1180 nM | 146 nM | 29.9 nM |  |  |  |  |  | 83.07% |
